Results reported in patent publication US12240844B2 (Voronoi, Inc., priority 2019, dated 2025).

Assays:
Format in all cases: biochemical
[1] = target: T1, human GST-DYRK1A (full length) (Homo sapiens, UniProt Q13627); experiment: GST-DYRK1A enzyme inhibition, ADP-Glo kinase assay; details: read-out: DYRK1 IC50
T1 construct: purified human GST-DYRK1A (full length, Thermo scientifics) enzyme; GST; purchased Thermo scientifics
Procedure, shortened: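 ADP-Glo luminescence quantified kinase activity after a 1 h, 25° C reaction of 10 ng full-length GST-tagged human DYRK1A, substrate and 10 uM ATP in Tris-HCl buffer pH 7.4 with MgCl2, BSA and DTT. Triplicate IC50 values (nM) calculated relative to untreated solvent control.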

LRRK2 = LRRK2 (Homo sapiens, UniProt Q5S007); experiment: LRRK2 enzyme inhibition, ADP-Glo kinase assay; set-up: purchased Invitrogen PR8604B
LRRK2, sequence (Q5S007 970-2527 limits assumed): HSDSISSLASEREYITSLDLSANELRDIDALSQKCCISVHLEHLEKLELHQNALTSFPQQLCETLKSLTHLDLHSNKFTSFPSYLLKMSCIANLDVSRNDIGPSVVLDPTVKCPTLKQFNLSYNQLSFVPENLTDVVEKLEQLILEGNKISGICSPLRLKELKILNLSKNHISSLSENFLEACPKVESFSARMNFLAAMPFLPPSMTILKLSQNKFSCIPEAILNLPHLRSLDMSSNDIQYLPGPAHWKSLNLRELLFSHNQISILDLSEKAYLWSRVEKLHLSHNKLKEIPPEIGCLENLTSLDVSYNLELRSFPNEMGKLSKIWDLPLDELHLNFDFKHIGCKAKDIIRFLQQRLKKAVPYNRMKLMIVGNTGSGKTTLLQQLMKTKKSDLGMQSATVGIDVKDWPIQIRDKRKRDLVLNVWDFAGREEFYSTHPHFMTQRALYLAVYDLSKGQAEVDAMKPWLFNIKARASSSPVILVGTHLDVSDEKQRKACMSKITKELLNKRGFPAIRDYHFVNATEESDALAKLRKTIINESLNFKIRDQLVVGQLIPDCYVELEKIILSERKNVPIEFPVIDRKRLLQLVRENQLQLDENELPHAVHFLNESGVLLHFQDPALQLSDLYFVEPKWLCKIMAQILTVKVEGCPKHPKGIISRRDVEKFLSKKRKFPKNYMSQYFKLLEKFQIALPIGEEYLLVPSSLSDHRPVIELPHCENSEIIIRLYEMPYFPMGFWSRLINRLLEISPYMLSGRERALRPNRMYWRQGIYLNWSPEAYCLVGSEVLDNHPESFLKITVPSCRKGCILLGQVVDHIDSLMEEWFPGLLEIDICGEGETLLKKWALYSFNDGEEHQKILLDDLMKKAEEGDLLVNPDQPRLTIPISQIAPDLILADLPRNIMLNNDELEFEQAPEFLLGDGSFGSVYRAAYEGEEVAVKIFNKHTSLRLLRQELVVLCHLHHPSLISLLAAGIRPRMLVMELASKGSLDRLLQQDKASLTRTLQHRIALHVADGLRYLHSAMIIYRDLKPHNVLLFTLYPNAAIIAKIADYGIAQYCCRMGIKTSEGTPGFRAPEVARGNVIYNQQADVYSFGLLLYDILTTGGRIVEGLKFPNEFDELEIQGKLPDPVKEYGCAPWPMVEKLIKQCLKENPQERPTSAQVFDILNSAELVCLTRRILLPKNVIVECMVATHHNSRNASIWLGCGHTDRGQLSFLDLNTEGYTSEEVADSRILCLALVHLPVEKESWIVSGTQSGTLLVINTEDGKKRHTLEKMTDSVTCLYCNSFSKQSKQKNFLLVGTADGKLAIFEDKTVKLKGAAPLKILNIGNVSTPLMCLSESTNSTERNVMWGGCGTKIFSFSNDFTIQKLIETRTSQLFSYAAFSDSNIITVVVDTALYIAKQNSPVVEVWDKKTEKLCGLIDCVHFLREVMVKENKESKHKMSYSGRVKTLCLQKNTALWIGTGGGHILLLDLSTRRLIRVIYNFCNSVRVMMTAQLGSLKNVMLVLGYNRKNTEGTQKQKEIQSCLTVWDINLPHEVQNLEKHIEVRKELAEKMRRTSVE
Experimental: In order to evaluate the inhibitory activity of the compounds according to the present invention on LRRK2, LRRK2 (G2019S), DYRK1, CLK1 and TTK kinases, the following experiment was performed.
Example compounds were reacted with the purified human LRRK2 (Invitrogen #PR8604B) enzyme to evaluate the enzyme inhibitory ability as follows. The reaction buffer was used as the composition of 40 mM Tris-HCl pH7.4, 20 mM MgCl2, 0.5 mg/ml BSA and 50 μM DTT, and the reaction of all test materials was performed on the reaction buffer. The compound was diluted with 10 mM DMSO stock in 12 steps by a serial dilution method, and the enzyme activity was measured at the final compound concentrations of 50, 10, 2, 0.4, 0.08, 0.016, 0.0032, 0.00064, 0.000128, 0.0000256, 0.00000512 and 0.000001024 μM. In the test, the human LRRK2 (25 ng) enzyme was reacted with the purified ATP (10 μM) and an enzyme substrate ([…]) at 25° C. for 2 hours, and then the enzyme activity was identified using the in vitro ADP-Glo™ kinase assay (promega). The enzyme activity reaction liquid, an ADP-Glo reaction liquid and an enzyme potency detection solution were reacted in a ratio of 2:2:1, and the degree of inhibition of enzyme activity was measured by Luminescence. The degree of inhibition of enzyme activity according to the treatment concentrations of the respective compounds was calculated based on the fluorescence of the enzyme activity of a solvent control group that was not treated with the compound, where the concentration of each compound to inhibit enzyme activity inhibition by 50% was determined as an IC50 (nM) value and obtained using Prism (Version 5.01, GraphPad) software.
In the table below, the following designations were used for the evaluation of enzyme inhibitory ability.

human GST-CLK1 (129-end) = target: T2, human GST-CLK1 (129-end) (Homo sapiens, UniProt P49759); experiment: GST-CLK1 enzyme inhibition, ADP-Glo kinase assay; details: ATP 10 uM
T2 construct: purified human GST-CLK1 (129-end, Signalchem) enzyme; GST; purchased Signalchem
T2 sequence (P49759 129-484 limits assumed): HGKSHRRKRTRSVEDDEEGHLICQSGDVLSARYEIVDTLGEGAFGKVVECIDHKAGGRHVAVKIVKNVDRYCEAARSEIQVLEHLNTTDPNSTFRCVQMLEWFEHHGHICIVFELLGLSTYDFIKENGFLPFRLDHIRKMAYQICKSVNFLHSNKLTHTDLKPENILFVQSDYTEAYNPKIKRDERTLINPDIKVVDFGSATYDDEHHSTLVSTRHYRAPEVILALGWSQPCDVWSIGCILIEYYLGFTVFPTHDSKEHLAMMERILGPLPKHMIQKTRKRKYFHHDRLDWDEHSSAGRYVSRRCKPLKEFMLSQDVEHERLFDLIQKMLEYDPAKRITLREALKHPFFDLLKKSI
Procedure, shortened: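 ADP formation was read by ADP-Glo luminescence after 1 h at 25° C with 3 ng human GST-CLK1 (129-end), substrate and 10 uM ATP in Tris pH 7.4 buffer containing MgCl2, BSA and DTT. Inhibition relative to untreated solvent control gave IC50 (nM), run in triplicate.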

LRRK2 (G2019S) = LRRK2 (G2019S) (Homo sapiens, UniProt Q5S007, G2019S); experiment: LRRK2 G2019S enzyme inhibition, ADP-Glo kinase assay; set-up: purchased SignalChem L10-12GG
LRRK2 (G2019S), sequence (Q5S007 970-2527 G2019S limits assumed): as the sequence (Q5S007 970-2527 limits assumed) above, with G1050S counted along it
Procedure, shortened: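 Activity read as ADP-Glo luminescence, normalized to untreated solvent control, with IC50 (nM) fitted over 12 final compound levels (top 50 μM). Reaction: 2 h, 25° C, human LRRK2 G2019S 16 ng, ATP 25 μM, substrate 0.2 μg, in Tris-HCl pH 7.4 with MgCl2, BSA and DTT.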

Compound	IC50 [1]	IC50 (LRRK2)	IC50 (human GST-CLK1 (129-end))	IC50 (LRRK2 (G2019S))
CNc1cc(Nc2ccc(C(=O)N3C[C@@H]4C[C@H]3CO4)c3c2OCCO3)nc2[nH]cc(C(F)(F)F)c12 [Example 43, ((1S,4S)-2-oxa-5-azabicyclo[2.2.1]heptan-5-yl)(8-((4-(methylamino)-3-(trifluoromethyl)-1H-pyrrolo[2,3-b]pyridin-6-yl)amino)-2,3-dihydrobenzo[b] [1,4]dioxin-5-yl)methanone]	< 0.1 µM	< 0.1 µM	< 0.1 µM	–
CN(C)c1cc(Nc2ccc(C(=O)N3CCC(N4CCOCC4)CC3)c3c2OCCO3)nc2[nH]cc(C(F)(F)F)c12 [Example 50, (8-((4-(dimethylamino)-3-(trifluoromethyl)-1H-pyrrolo[2,3-b]pyridin-6-yl)amino)-2,3-dihydrobenzo[b] [1,4]dioxin-5-yl)(4-morpholinopiperidin-1-yl)methanone]	0.301 to 1 µM	< 0.1 µM	< 0.1 µM	–
CNc1cc(Nc2ccc(S(C)(=N)=O)cc2OC)nc2[nH]cc(C(F)(F)F)c12 (stereo not drawn) [Example 103, N^6-(2-methoxy-4-(s-methylsulfonylimidoyl)phenyl)-N^4-methyl-3-(trifluoromethyl)-1H-pyrrolo[2,3-b]pyridine-4,6-diamine]	0.301 to 1 µM	0.101 to 0.3 µM	0.301 to 1 µM	–
CNc1cc(Nc2ccc(P3(=O)CCN(C4COC4)CC3)cc2OC)nc2[nH]cc(C#N)c12 [Example 142, 6-((2-methoxy-4-(1-(oxetan-3-yl)-4-oxido-1,4-azaphosphinan-4-yl)phenyl)amino)-4-(methylamino)-1H-pyrrolo[2,3-b]pyridine-3-carbonitrile]	0.101 to 0.3 µM	< 0.1 µM	0.301 to 1 µM	–
CCNc1cc(Nc2ccc(P3(=O)CCN(C4COC4)CC3)cc2OC)nc2[nH]cc(C#N)c12 [Example 143, 4-(ethylamino)-6-((2-methoxy-4-(1-(oxetan-3-yl)-4-oxido-1,4-azaphosphinan-4-yl)phenyl)amino)-1H-pyrrolo[2,3-b]pyridine-3-carbonitrile]	0.301 to 1 µM	< 0.1 µM	0.101 to 0.3 µM	–
COCCNc1cc(Nc2ccc(P3(=O)CCN(C4COC4)CC3)cc2OC)nc2[nH]cc(C#N)c12 [Example 144, 6-((2-methoxy-4-(1-(oxetan-3-yl)-4-oxido-1,4-azaphosphinan-4-yl)phenyl)amino)-4-((2-methoxyethyl)amino)-1H-pyrrolo[2,3-b]pyridine-3-carbonitrile]	0.301 to 1 µM	< 0.1 µM	0.101 to 0.3 µM	–
CCNc1cc(Nc2ccc(P3(=O)CCN(C(C)=O)CC3)cc2OC)nc2[nH]cc(C#N)c12 [Example 145, 6-((4-(1-acetyl-4-oxido-1,4-azaphosphinan-4-yl)-2-methoxyphenyl)amino)-4-(ethylamino)-1H-pyrrolo[2,3-b]pyridine-3-carbonitrile]	0.101 to 0.3 µM	< 0.1 µM	0.301 to 1 µM	–
CCNc1cc(Nc2ccc(P3(=O)CCN(C4CC4)CC3)cc2OC)nc2[nH]cc(C#N)c12 [Example 147, 6-((4-(1-cyclopropyl-4-oxido-1,4-azaphosphinan-4-yl)-2-methoxyphenyl)amino)-4-(ethylamino)-1H-pyrrolo[2,3-b]pyridine-3-carbonitrile]	< 0.1 µM	< 0.1 µM	0.301 to 1 µM	–
CN(C)CCNc1cc(Nc2ccc(C(=O)N3CCC(N4CCOCC4)CC3)c3c2OCCO3)nc2[nH]cc(C(F)(F)F)c12 [Example 172, (8-((4-((2-(dimethylamino)ethyl)amino)-3-(trifluoromethyl)-1H-pyrrolo[2,3-b]pyridin-6-yl)amino)-2,3-dihydrobenzo[b] [1,4]dioxin-5-yl)(4-morpholinopiperidin-1-yl)methanone]	0.301 to 1 µM	< 0.1 µM	0.101 to 0.3 µM	–
CCCNc1cc(Nc2ccc(C(=O)N3CCOCC3)c3c2OCCO3)nc2[nH]cc(C(F)(F)F)c12 [Example 174, morpholino(8-((4-(propylamino)-3-(trifluoromethyl)-1H-pyrrolo[2,3-b]pyridin-6-yl)amino)-2,3-dihydrobenzo[b] [1,4]dioxin-5-yl)methanone]	0.301 to 1 µM	0.101 to 0.3 µM	0.301 to 1 µM	–
COc1cc(S(C)(=O)=O)ccc1Nc1cc(NC2CCC2)c2c(C(F)(F)F)c[nH]c2n1 [Example 204, N^4-cyclobutyl-N^6-(2-methoxy-4-(methylsulfonyl)phenyl)-3-(trifluoromethyl)-1H-pyrrolo[2,3-b]pyridine-4,6-diamine]	0.301 to 1 µM	0.301 to 1 µM	0.301 to 1 µM	–
CCNc1cc(Nc2ccc(P3(=O)CCN(CC)CC3)cc2OC)nc2[nH]cc(C(F)(F)F)c12 [Example 210, 1-ethyl-4-(4-((4-(ethylamino)-3-(trifluoromethyl)-1H-pyrrolo[2,3-b]pyridin-6-yl)amino)-3-methoxyphenyl)-1,4-azaphosphinane 4-oxide]	< 0.1 µM	< 0.1 µM	< 0.1 µM	–
CCNc1cc(Nc2ccc(C(=O)N3CCC(N4C[C@@H](C)O[C@@H](C)C4)CC3)c3c2OCC3)nc2[nH]cc(C(F)(F)F)c12 [Example 263, (4-((2S,6R)-2,6-dimethylmorpholino)piperidin-1-yl)(7-((4-(ethylamino)-3-(trifluoromethyl)-1H-pyrrolo[2,3-b]pyridin-6-yl)amino)-2,3-dihydrobenzofuran-4-yl)methanone]	< 0.1 µM	–	< 0.1 µM	< 0.1 µM

More lines, now with the values ahead:

IC50 [1]	IC50 (LRRK2)	IC50 (human GST-CLK1 (129-end))	IC50 (LRRK2 (G2019S))	Compound
0.101 to 0.3 µM	0.101 to 0.3 µM	0.301 to 1 µM	–	CCCNc1cc(Nc2ccc(P3(=O)CCN(C4CC4)CC3)cc2OC)nc2[nH]cc(C(F)(F)F)c12 [Example 45, 1-cyclopropyl-4-(3-methoxy-4-((4-(propylamino)-3-(trifluoromethyl)-1H-pyrrolo[2,3-b]pyridin-6-yl)amino)phenyl)-1,4-azaphosphinane 4-oxide]
0.301 to 1 µM	0.301 to 1 µM	0.301 to 1 µM	–	COc1cc(P2(=O)CCN(C3CC3)CC2)ccc1Nc1cc(NC2CCC2)c2c(C(F)(F)F)c[nH]c2n1 [Example 46, 4-(4-((4-(cyclobutylamino)-3-(trifluoromethyl)-1H-pyrrolo[2,3-b]pyridin-6-yl)amino)-3-methoxyphenyl)-1-cyclopropyl-1,4-azaphosphinane 4-oxide]
0.301 to 1 µM	0.101 to 0.3 µM	0.101 to 0.3 µM	–	CCN(C)c1cc(Nc2ccc(C(=O)N3CCC(N4CCOCC4)CC3)c3c2OCCO3)nc2[nH]cc(C(F)(F)F)c12 [Example 51, (8-((4-(ethyl(methyl)amino)-3-(trifluoromethyl)-1H-pyrrolo[2,3-b]pyridin-6-yl)amino)-2,3-dihydrobenzo [b] [1,4]dioxin-5-yl)(4-morpholinopiperidin-1-yl)methanone]
0.101 to 0.3 µM	< 0.1 µM	< 0.1 µM	–	COC[C@@H](C)Nc1cc(Nc2ccc(C(=O)N3CCOCC3)c3c2OCCO3)nc2[nH]cc(C(F)(F)F)c12 [Example 159, (R)-(8-((4-((1-methoxypropan-2-yl)amino)-3-(trifluoromethyl)-1H-pyrrolo[2,3-b]pyridin-6-yl)amino)-2,3-dihydrobenzo [b] [1,4]dioxin-5-yl)(morpholino) methanone]
0.301 to 1 µM	< 0.1 µM	0.301 to 1 µM	–	CN(C)CCNc1cc(Nc2ccc(C(=O)N3CCOCC3)c3c2OCCO3)nc2[nH]cc(C(F)(F)F)c12 [Example 171, (8-((4-((2-(dimethylamino)ethyl)amino)-3-(trifluoromethyl)-1H-pyrrolo[2,3-b]pyridin-6-yl)amino)-2,3-dihydrobenzo [b] [1,4]dioxin-5-yl)(morpholino) methanone]
< 0.1 µM	–	< 0.1 µM	< 0.1 µM	CCNc1cc(Nc2ccc(P3(=O)CCN(Cc4ccc(OC)cc4OC)CC3)cn2)nc2[nH]cc(C(F)(F)F)c12 [Example 267, 1-(2,4-dimethoxybenzy 1)-4-(6-((4-(ethylamino)-3-(trifluoromethyl)-1H-pyrrolo[2,3-b]pyridin-6-yl)amino)pyridin-3-yl)-1,4-azaphosphinane 4-oxide]
